Like-named read-outs stand apart in the source and are kept apart here.
Assays:
[1] = target: Silver catfish (Synodontis eupterus) major hepatic glutathione transferase (seGST); assay type: biochemical; conditions: pH 6.5, 1 mM CDNB and 1 mM GSH
[2] = test system: Silver catfish (Synodontis eupterus) major hepatic glutathione transferase (seGST); assay: Product and dead-end inhibition studies of seGST; assay type: biochemical
[3] = test system: Silver catfish (Synodontis eupterus) major hepatic glutathione transferase (seGST); assay: seGST steady state kinetics, GSH-CDNB conjugation; assay type: biochemical; conditions: for Km: 0.1-1.2 mM GSH and CDNB, one substrate varied, the other kept constant
GST = conditions: cited from earlier work
[4] = test system: Silver catfish (Synodontis eupterus) major hepatic glutathione transferase (seGST); assay: Viscosity dependence of seGST kcat/KM; assay type: biochemical; conditions: viscosogen added, 25 °C

## C=CC1=C(C)c2cc3[n-]c(cc4[n-]c(cc5nc(cc1n2)C(C)=C5C=C)c(C)c4CCC(=O)O)c(CCC(=O)O)c3C.[Fe+2] [Hematin]
[1]
  IC50: 5 ± 0.1 µM

## [Cl-].[K+] [KCl]
[2]; with respect to GSH and with respect to CDNB
  inhibition pattern in double reciprocal plots: non-competitive inhibition

## [Cl][Sn]([c]1ccccc1)([c]1ccccc1)[c]1ccccc1 [Triphenytin chloride, triphenyltin chloride]
[1]
  IC50: 0.05 ± 0.005 µM

## Nc1c(S(=O)(=O)O)cc(Nc2ccc(Nc3nc(Cl)nc(Nc4ccccc4S(=O)(=O)O)n3)c(S(=O)(=O)O)c2)c2c1C(=O)c1ccccc1C2=O [Cibracron Blue]
[1]
  IC50: 0.01 ± 0.001 µM

## O=C1OC(c2ccc(O)c(S(=O)(=O)O)c2)(c2ccc(O)c(S(=O)(=O)O)c2)c2c(Br)c(Br)c(Br)c(Br)c21 [Bromosulphosptlein, bromosulfophthalein]
[1]
  IC50: 47.4 ± 5.67 µM

## CCCCCCSC[C@H](NC(=O)CC[C@H](N)C(=O)O)C(=O)NCC(=O)O [s-hexylglutathione]
[1]
  IC50: 17.6 ± 1.3 µM

## 1-methyl glutathione [1−methylglutathione]
[2]; read-out: Kis (CDNB varied), CDNB varied
  Ki: 0.16 µM
[2]; read-out: Kis (GSH varied), CDNB fixed at 1.0 mM, GSH 0.1-1.0 mM
  Ki: 0.09 µM
[1]
  IC50: 16.6 ± 1.58 µM

## N[C@@H](CCC(=O)N[C@@H](CS)C(=O)NCC(=O)O)C(=O)O [GSH, Reduced glutathione]
[3]; 25 °C
  Km: 530 ± 50 µM
[3]; 25 °C, GSH-CDNB conjugation
  kcat[GSH]: 44.62 ± 1.124 s⁻¹
[3]; from secondary plots, GSH-CDNB
  KA (E.GSH + CDNB ⇌ E.GSH.CDNB): 0.64 ± 0.04
  KIA (E.GSH): 0.14 ± 0.01
GST; before lowering by GST
  pKa of GSH: 9.0
GST; bound to GST
  pKa of the bound GSH: about 6.5

## OCC(O)CO [glycerol, Glycerol]
[4]
  catalytic efficiency indicated by the exponential value: 23%
[4]; 0.1 M potassium phosphate buffer pH 6.5
  exponential value of (kcat/KM)^0/(kcat/KM) versus relative viscosity: 0.227

## O=[N+]([O-])c1ccc(Cl)c([N+](=O)[O-])c1 [CDNB, 1-chloro 2,4-dintrobenzene]
[3]; 25 °C
  Km: 690 ± 170 µM
[3]; from secondary plots, GSH-CDNB
  KIB (E.CDNB + GSH ⇌ E.CDNB.GSH): 0.48 ± 0.02

## C=C(CC)C(=O)c1ccc(OCC(=O)O)c(Cl)c1Cl [Ethacrynic acid]
[1]
  IC50: 21.3 ± 3.22 µM
